Experimental data: patent US11001563B2, “SSAO inhibitor” (SHANDONG DANHONG PHARMACEUTICAL CO., LTD., priority 2017, dated 2021)

Key:
[1] = Compound pharmacokinetic evaluation in SD rats; format: in vivo; conditions: male, Sprague-Dawley, rat, plasma
Experimental: Experimental purpose: compound pharmacokinetics were tested in SD rats
Sprague Dawley rats (male, 200-300 g, 7-9 weeks old, Shanghai Slack)
(§1) Experimental procedure: the pharmacological characteristics of the compound after intravenous and oral administration were tested in rodents by standard protocol, candidate compounds in the experiment was prepared into clear solutions to be administered to the rats in a single intravenous injection and orally. The intravenous and oral solvents were a certain proportion of an aqueous hydroxypropyl 3-cyclodextrin solution or a physiological saline solution. Whole blood samples within 24 hours were collected, and centrifuged at 3000 g for 15 minutes, the supernatant was separated to obtain plasma samples, 4 times volume of acetonitrile solution containing internal standard was added to precipitate protein, centrifuging was conducted to take the supernatant, equal volume of water was added and centrifuging was conducted to the supernatant to be sampled. The LC-MS/MS analysis method was used to quantitatively analyze the plasma concentration, and the pharmacokinetic parameters such as peak concentration, peak time, clearance rate, half-life, area under the drug concentration-time curve, and bioavailability were calculated.

CYP1A2 = CYP1A2 (Homo sapiens (Human), UniProt P05177); experiment: Human liver microsomal CYP inhibition assay; format: in vitro ADME; conditions: human liver microsomes, 5-in-1 probe substrate
Sequence of CYP1A2 (P05177 whole entry): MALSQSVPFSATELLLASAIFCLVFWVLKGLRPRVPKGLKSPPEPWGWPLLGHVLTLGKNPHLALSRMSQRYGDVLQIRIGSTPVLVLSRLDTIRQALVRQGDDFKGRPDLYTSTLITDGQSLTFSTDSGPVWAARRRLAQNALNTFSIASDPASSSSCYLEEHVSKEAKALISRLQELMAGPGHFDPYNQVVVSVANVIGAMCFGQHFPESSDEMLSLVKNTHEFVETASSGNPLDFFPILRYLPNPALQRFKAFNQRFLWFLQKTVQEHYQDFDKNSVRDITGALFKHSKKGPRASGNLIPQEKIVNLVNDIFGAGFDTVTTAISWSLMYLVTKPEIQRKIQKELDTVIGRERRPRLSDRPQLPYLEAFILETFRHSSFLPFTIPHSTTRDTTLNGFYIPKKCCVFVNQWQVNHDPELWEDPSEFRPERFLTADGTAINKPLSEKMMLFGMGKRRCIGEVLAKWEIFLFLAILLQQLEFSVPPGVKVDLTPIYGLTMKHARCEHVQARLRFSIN
Experimental: (§2) The purpose of the study was to evaluate the inhibition of the test sample on human liver microsomal cytochrome P450 isozymes (CYP1A2, CYP2C9, CYP2C19, CYP2D6, and CYP3A4) by using the CYP isozyme 5-in-1 probe substrate.
(§3) Mixed human liver microsomes (HLM) were purchased from Corning Inc. (Steuben, N.Y., USA) or XenoTech, LLC. (Lenexa, Kans., USA) or other suppliers, and stored at the temperature below −70° C. prior to use.
(§4) A series of diluted test sample working solution were added to an incubation system containing cofactors of human liver microsomes, a probe substrate and a circulation system, and the control without a test substance but containing a solvent was used as enzyme activity control (100%). The concentration of the metabolite produced by the probe sample in the sample was determined by liquid chromatography-tandem mass spectrometry (LC-MS/MS). Non-linear regression analysis was performed on the concentration of the average percent activity of the test sample by using SigmaPlot (V.11). The IC50 value was calculated by a three-parameter or four-parameter recursive logarithmic equation.

CYP2C9 = CYP2C9 (Homo sapiens (Human), UniProt P11712); experiment: Human liver microsomal CYP inhibition assay; format: in vitro ADME; conditions: human liver microsomes, 5-in-1 probe substrate
Sequence of CYP2C9 (P11712 whole entry): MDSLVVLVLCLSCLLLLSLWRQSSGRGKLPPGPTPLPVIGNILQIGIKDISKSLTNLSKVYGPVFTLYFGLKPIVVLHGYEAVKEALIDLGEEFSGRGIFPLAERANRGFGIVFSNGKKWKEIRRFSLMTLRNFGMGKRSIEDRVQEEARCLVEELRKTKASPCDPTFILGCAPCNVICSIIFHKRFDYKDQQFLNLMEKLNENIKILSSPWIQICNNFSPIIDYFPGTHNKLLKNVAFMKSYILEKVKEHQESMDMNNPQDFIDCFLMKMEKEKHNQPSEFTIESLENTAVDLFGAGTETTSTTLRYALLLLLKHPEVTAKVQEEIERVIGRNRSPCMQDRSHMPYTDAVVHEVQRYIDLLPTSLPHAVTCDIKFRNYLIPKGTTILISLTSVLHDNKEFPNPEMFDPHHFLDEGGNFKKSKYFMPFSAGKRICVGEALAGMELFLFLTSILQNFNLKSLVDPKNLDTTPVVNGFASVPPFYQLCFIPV
Experimental: as §2, §3, §4

CYP2D6 = CYP2D6 (Homo sapiens (Human), UniProt P10635); experiment: Human liver microsomal CYP inhibition assay; format: in vitro ADME; conditions: human liver microsomes, 5-in-1 probe substrate
Sequence of CYP2D6 (P10635 whole entry): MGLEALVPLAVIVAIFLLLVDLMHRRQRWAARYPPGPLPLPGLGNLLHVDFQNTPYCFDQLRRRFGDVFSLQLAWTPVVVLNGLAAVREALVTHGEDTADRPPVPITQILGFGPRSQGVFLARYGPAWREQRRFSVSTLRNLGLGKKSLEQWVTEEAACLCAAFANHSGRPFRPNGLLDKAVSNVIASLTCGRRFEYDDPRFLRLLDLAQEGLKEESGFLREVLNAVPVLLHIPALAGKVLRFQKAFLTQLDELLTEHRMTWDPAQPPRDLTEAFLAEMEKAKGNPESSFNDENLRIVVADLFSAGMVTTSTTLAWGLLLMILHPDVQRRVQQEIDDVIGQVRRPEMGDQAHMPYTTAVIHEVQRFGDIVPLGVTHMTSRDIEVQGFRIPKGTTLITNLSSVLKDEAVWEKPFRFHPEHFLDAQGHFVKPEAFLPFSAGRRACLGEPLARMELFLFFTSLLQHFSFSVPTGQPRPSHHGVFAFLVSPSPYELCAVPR
Experimental: as §2, §3, §4

CYP2C19 = CYP2C19 (Homo sapiens (Human), UniProt P33261); experiment: Human liver microsomal CYP inhibition assay; format: in vitro ADME; conditions: human liver microsomes, 5-in-1 probe substrate
Sequence of CYP2C19 (P33261 whole entry): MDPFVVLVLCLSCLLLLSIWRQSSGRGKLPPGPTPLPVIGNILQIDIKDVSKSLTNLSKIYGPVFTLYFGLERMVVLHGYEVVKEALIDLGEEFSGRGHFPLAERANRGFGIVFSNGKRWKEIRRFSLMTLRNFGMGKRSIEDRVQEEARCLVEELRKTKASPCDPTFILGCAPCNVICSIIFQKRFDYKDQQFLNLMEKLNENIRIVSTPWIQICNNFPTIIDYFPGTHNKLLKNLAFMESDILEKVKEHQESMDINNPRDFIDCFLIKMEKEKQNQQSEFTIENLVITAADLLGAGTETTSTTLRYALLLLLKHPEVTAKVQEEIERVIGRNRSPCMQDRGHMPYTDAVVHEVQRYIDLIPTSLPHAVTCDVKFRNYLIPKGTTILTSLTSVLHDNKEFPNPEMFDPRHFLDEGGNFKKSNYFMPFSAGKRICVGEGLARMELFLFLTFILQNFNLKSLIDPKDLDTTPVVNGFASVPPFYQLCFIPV
Experimental: as §2, §3, §4

CYP3A4 = CYP3A4 (Homo sapiens (Human), UniProt P08684); experiment: Human liver microsomal CYP inhibition assay; format: in vitro ADME; conditions: human liver microsomes, 5-in-1 probe substrate
Sequence of CYP3A4 (P08684 whole entry): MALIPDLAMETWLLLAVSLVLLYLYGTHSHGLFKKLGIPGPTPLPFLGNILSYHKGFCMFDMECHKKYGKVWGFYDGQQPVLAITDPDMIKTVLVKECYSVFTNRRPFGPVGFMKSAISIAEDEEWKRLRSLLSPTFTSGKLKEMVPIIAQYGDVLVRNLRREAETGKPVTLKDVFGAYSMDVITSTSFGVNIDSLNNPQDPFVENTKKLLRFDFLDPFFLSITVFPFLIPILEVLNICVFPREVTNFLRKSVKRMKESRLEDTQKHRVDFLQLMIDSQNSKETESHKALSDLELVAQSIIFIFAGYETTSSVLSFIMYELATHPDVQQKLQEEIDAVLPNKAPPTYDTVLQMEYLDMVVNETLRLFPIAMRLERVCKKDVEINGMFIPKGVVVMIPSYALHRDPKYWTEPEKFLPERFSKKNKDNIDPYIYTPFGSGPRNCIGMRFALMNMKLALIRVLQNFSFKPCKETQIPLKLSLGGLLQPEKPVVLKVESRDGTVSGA
Experimental: as §2, §3, §4

[2] = test system: CCl4-induced chronic liver fibrosis; experiment: Oral CCl4-induced chronic liver fibrosis male C57BL/6 model; format: in vivo, C57BL/6 mice; conditions: oral daily for 28 days, in words
Experimental: The therapeutic effect of compounds on an oral CCl4-induced chronic liver fibrosis male C57BL/6 model was tested. Male C57BL/6 mice, 7-8 weeks old; Experimental method: Male C57BL/6 mice were orally administered from the day CCl4 was put for modeling, and administered daily. Continuous administration was conducted for 28 days. The animals were fasted for at least 6 hours on the next day after the last administration. Animal weight was measured during euthanasia and all animals were euthanized under the guidance of the KCl Animal Euthanasia SOP. Non-anticoagulant venous blood of mice was collected from the ocular venous plexus. The whole blood was allowed to stand at room temperature for 30 minutes, and centrifuged at 5000 rpm for 5 minutes, and the serum was separated and placed in a 1.5 ml EP tube and stored at -80° C. After the whole body of the animal was perfused with hypothermic saline, the liver was taken and subjected to tissue gross image acquisition. The left lobe of the liver was divided into 4 equal parts and put into 4 tissue cryotubes for liquid nitrogen freezing, and then transferred to -80 OC for storage. The rest of the liver tissue was fixed in 10% neutral formalin fixative. […] HE staining was subjected to double-blind score by two pathological readers, and the area of hepatic fibrosis was analyzed for sirius-red stained sections by digital pathology.

[3] = Compound pharmacokinetic evaluation in CD-1 mice; format: in vivo, CD-1 mouse; conditions: male, mouse, plasma
Experimental: Experimental purpose: compound pharmacokinetics were tested in CD-1 mice
CD-1 mouse (Male, 25-35 g, 6-9 weeks old, Shanghai Slack);
as §1, with “to the mice in a” for “to the rats in a”, “aqueous hydroxypropyl β-cyclodextrin solution or” for “aqueous hydroxypropyl 3-cyclodextrin solution or”, “conducted to take the supernatant” for “conducted to the supernatant”

VAP-1/SSAO = VAP-1/SSAO (Homo sapiens (Human), UniProt Q16853); experiment: Human VAP-1 enzyme activity assay (Amplex Red Monoamine Oxidase kit); format: biochemical; conditions: 10 nM VAP-1 enzyme, 30 min preincubation, benzylamine substrate; read-out: Human Recombinant VAP-1/SSAO Enzyme Inhibitory Activity IC50
Sequence of VAP-1/SSAO (Q16853 whole entry): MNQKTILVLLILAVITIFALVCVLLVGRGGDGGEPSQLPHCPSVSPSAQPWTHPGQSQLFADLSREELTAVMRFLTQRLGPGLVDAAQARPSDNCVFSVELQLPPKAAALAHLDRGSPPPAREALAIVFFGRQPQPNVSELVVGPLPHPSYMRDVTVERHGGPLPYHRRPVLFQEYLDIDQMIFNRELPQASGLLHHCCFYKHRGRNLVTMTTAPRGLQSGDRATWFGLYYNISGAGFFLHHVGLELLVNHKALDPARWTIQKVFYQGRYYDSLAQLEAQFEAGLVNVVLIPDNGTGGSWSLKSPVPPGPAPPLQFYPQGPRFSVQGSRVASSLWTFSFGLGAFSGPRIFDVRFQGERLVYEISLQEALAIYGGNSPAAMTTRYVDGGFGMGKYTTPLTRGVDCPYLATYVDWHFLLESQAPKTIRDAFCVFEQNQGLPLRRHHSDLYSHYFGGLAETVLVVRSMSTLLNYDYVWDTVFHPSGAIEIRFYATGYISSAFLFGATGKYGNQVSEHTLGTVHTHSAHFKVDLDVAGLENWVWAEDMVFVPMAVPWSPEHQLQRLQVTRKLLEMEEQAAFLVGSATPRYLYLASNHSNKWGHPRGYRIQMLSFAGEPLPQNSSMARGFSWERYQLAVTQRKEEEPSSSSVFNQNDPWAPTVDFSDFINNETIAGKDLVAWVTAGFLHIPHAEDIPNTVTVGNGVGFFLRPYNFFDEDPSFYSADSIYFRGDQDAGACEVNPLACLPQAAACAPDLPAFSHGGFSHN
Experimental: Human VAP-1 enzyme activity assay:
The inhibition of the sample on VAP-enzyme activity was measured by using an Amplex® Red Monoamine Oxidase kit (Invitrogen #A12214). 100 nL of the gradiently-diluted to-be-tested compound (solvent DMSO) was added to a 384-well plate. 25 μL of 10 nM VAP-1 enzyme solution was added and incubated for 30 minutes at room temperature. A substrate mixture of VAP-1 enzyme (200 μM Amplex Red, 1 U/mL HRP, 1 mM Benzylamine) was added and incubated for 60 minutes at room temperature. After the incubation, the fluorescent signal was read with a microplate reader Envision (excitation light wavelength 530-560 nm, emission light wavelength 590 nm). The fluorescence signal value after the background signal was removed was analyzed by Prism software, and the IC50 of the sample against the VAP-1 enzyme was calculated.

[4] = po, read-out: Bioavailability F
[5] = single intravenous injection and oral, read-out: Peak Concentration Cmax

Cl.Cn1nc(-c2ccc(OC/C(=C/F)CN)cc2)nc1C(F)F [WX126]
Tmax ([1]; oral, read-out: Peak Time Tmax): 1.5 h
bioavailability [1, 4]: 99%
AUC ([1]; read-out: Concentration Integral AUC): 9.31 µM·h
Cmax [1, 5]: 2340 nM
IC50 (CYP1A2): 5 µM
IC50 (CYP2C9): 24 µM
IC50 (CYP2D6): 36 µM
IC50 (CYP2C19): 17 µM
IC50 (CYP3A4): > 50 µM
Effect on liver fibrosis (Sirius-Red staining) [2]: obvious improvement effect
Effect on liver injury (HE staining score) [2]: obvious improvement effect
AUC ([3]; oral, read-out: Concentration Integral AUC): 6.49 µM·h
Tmax ([3]; oral, read-out: Peak Time Tmax): 0.5 h
bioavailability [3, 4]: 102%
Cmax [3, 5]: 3530 nM
IC50 (VAP-1/SSAO): 0.0002 µM
